Test results published in ChEMBL document CHEMBL1139033, “Design, synthesis, and structure-activity relationship of novel thiophene derivatives for beta-amyloid plaque imaging” (Bioorg Med Chem Lett, 2006).
pKi: −log10 of the molar value.

Target: Amyloid-beta precursor protein (Homo sapiens, UniProt P05067)
Experiment: Displacement of [125I]IMPY from beta amyloid plaque in brain homogenates
Type: tissue-based

Sequence of Amyloid-beta precursor protein (P05067 whole entry): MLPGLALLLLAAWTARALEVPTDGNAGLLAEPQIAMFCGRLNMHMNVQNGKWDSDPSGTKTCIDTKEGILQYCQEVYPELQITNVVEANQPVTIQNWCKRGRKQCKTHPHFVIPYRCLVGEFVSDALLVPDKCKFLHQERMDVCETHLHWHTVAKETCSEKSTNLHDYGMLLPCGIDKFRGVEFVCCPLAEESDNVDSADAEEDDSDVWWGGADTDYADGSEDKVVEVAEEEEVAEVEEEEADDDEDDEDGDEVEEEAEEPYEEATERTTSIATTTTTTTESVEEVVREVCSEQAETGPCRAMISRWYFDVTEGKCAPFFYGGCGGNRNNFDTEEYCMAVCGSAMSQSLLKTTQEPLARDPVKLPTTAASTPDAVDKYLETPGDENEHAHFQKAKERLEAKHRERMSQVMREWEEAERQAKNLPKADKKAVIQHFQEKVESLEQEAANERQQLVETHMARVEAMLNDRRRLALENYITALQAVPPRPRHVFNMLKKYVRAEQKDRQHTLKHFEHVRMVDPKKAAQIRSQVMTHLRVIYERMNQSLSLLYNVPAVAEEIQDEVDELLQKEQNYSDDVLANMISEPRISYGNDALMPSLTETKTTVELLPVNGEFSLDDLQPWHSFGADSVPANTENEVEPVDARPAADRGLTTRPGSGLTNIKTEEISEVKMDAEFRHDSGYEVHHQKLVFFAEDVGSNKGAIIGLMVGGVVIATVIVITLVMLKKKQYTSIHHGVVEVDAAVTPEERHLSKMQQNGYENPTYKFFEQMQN

Row | Structure (SMILES) | pKi
1 | COc1ccccc1-c1ccc(-c2ccccc2OC)s1 | 6.20
2 | O=[N+]([O-])c1ccc(-c2ccc(-c3ccc([N+](=O)[O-])cc3)s2)cc1 | 6.73
3 | Oc1ccc(-c2ccc(-c3ccc(NCCF)cc3)s2)cc1 | 8.41
4 | COc1ccc(-c2ccc(-c3ccc(N(C)C)cc3)s2)cc1 | 6.30
5 | Oc1ccc(-c2ccc(-c3ccc(O)cc3)s2)cc1 | 8.40
6 | COc1ccc(-c2ccc(-c3ccc([N+](=O)[O-])cc3)s2)cc1 | 7.73
7 | CNc1ccc(-c2ccc(-c3ccc(O)cc3)s2)cc1 | 7.51
8 | CN(C)c1ccc(-c2ccc(-c3ccc(O)cc3)s2)cc1 | 8.12
9 | CSc1ccc(-c2ccc(-c3ccc(SC)cc3)s2)cc1 | < 6.00
10 | Nc1ccc(-c2ccc(-c3ccc(N)cc3)s2)cc1 | 8.21
11 | COc1ccc(-c2ccc(-c3ccc(N)cc3)s2)cc1 | 8.25
12 | COc1ccc(-c2ccc(-c3ccc(OC)cc3)s2)cc1 | 6.97
13 | COc1ccc(-c2ccc(-c3ccc(NCCF)cc3)s2)cc1 | 7.67
14 | COc1ccc(-c2ccc(-c3ccc(O)cc3)s2)cc1 | 8.21
15 | Nc1ccc(-c2ccc(-c3ccc(O)cc3)s2)cc1 | 8.02
